This is an account of results in ChEMBL document CHEMBL1201862, “PubChem BioAssay data set” (2004).

Assay [1] deals with SN12K1. Put plainly: cells. The format is functional. The conditions noted are these: Homo sapiens.
The test system of assay [2] is P388/ADR. Put plainly: cells. In kind it is functional. Particulars: Mus musculus.
Assay [3] has as its system P388. Put plainly: cells. Particulars: Mus musculus. The format is functional.
A short description of assay [4]: general mammalian cell viability loss – activator set, cherry-pick, cytotoxicity control for miR-122 modulator project, dose response (AID 720690).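 Note: HEK293T human cells scored for general mammalian cytotoxicity.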 The format is functional, cell-based.
Assay [5] is described as follows: activation of miR-122 Renilla sensor silencing – cell-based, Huh7 psiCHECK-miR122, Renilla luciferase, cherry-picked, dose response (AID 651956).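 Note: huh7 hepatoma cells stably carrying a psiCHECK-2 miR-122 sensor plasmid; renilla luciferase signal reporting endogenous miR-122 activity after 48 h compound exposure.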 The format is functional.
Assay [6] deals with Beta-galactosidase (Escherichia coli, UniProt Q8VNN2). Put plainly: Dose response counterscreen for EBI2 assay utilizing the enzyme, b-galactosidase. In kind it is functional. On the technique in general: A counterscreen serves to expose hits that act by an unwanted route or on another target.
In assay [7] the target is T1, Sentrin-specific protease 6 (Homo sapiens, UniProt Q9GZR1).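 Note: Luminescence-based dose-response confirmatory assay of SENP6 inhibition, following up an ultra-high-throughput screen.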
T1 sequence (Q9GZR1 whole entry): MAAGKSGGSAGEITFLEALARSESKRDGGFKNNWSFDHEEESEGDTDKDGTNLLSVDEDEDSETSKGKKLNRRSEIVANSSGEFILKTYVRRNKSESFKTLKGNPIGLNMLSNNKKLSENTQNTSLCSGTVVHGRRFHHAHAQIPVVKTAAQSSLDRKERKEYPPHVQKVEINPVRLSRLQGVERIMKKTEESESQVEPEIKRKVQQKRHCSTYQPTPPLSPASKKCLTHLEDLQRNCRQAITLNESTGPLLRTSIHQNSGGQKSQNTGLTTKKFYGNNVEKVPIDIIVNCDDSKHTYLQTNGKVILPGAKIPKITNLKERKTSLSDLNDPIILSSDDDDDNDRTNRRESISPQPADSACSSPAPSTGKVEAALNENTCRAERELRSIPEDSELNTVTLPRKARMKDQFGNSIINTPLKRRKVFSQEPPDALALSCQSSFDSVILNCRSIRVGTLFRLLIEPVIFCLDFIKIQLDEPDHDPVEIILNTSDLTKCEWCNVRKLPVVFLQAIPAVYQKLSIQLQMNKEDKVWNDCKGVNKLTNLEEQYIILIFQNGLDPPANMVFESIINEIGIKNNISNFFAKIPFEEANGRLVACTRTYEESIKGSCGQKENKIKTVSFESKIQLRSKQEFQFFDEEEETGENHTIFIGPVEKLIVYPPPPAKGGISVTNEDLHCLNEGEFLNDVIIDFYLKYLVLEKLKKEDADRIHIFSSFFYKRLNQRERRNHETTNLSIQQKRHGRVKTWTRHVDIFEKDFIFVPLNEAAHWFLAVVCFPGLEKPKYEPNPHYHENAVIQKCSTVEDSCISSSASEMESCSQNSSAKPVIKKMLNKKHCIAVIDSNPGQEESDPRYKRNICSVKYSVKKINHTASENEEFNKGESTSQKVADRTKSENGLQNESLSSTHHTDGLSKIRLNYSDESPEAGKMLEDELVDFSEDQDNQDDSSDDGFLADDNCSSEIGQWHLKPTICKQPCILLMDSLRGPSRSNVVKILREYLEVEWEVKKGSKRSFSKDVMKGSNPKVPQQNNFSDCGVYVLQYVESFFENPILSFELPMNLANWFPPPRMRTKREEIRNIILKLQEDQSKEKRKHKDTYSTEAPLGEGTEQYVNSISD
In kind it is functional.

The target of assay [8] is T2, Sentrin-specific protease 8 (Homo sapiens, UniProt Q96LD8).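 Note: luminescence read-out of SENP8 inhibition, dose-response confirmation following an ultra-high-throughput screen.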
T2 sequence (Q96LD8 whole entry): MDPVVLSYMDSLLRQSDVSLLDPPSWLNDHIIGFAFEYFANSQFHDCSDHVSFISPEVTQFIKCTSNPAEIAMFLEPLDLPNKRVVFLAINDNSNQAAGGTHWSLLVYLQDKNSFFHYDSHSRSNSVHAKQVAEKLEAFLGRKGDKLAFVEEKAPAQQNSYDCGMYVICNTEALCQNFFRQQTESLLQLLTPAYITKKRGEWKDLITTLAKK
The format is functional.

The target of assay [9] is T3, Leucine aminopeptidase (Plasmodium falciparum 3D7, UniProt Q8IL11).
T3 sequence (Q8IL11 whole entry): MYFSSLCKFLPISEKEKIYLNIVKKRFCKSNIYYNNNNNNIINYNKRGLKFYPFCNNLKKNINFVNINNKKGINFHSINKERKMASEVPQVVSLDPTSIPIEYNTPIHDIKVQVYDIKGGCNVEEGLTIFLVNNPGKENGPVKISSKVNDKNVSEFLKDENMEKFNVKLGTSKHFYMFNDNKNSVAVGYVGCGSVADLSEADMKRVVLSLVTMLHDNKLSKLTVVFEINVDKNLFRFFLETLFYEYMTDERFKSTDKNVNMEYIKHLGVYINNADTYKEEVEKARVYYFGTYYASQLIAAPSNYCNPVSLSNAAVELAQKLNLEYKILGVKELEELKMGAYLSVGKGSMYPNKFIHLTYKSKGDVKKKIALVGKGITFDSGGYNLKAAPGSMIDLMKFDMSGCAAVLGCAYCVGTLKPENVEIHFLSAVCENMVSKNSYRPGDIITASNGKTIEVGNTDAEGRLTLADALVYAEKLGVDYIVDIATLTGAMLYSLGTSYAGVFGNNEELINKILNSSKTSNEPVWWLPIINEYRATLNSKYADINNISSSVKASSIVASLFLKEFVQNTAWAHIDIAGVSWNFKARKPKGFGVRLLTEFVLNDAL
Put plainly: P. falciparum M17LAP inhibitors, primary screen, biochemical, fluorogenic H-Leu-NHMec substrate, 1536-well (AID 1619). In kind it is functional.

In assay [10] the target is T4, Caspase-3 (Homo sapiens, UniProt P42574).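 Note: Dose-response selectivity test against caspase-3 for candidate inhibitors of sentrin-specific proteases (SENPs).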
T4 sequence (P42574 whole entry): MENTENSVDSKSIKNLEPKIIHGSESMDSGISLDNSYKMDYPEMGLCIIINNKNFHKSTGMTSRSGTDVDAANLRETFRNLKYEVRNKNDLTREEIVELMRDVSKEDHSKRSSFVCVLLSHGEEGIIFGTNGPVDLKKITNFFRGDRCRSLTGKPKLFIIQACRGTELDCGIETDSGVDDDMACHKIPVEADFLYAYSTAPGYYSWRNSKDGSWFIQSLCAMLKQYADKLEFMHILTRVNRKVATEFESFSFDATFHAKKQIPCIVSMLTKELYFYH
In kind it is functional.

Assay [11] has as its target T5, Sentrin-specific protease 7 (Homo sapiens, UniProt Q9BQF6).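 Note: Luminescence-based dose-response confirmation of ultra-high-throughput screening hits, measuring inhibition of SENP7.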
T5 sequence (Q9BQF6 whole entry): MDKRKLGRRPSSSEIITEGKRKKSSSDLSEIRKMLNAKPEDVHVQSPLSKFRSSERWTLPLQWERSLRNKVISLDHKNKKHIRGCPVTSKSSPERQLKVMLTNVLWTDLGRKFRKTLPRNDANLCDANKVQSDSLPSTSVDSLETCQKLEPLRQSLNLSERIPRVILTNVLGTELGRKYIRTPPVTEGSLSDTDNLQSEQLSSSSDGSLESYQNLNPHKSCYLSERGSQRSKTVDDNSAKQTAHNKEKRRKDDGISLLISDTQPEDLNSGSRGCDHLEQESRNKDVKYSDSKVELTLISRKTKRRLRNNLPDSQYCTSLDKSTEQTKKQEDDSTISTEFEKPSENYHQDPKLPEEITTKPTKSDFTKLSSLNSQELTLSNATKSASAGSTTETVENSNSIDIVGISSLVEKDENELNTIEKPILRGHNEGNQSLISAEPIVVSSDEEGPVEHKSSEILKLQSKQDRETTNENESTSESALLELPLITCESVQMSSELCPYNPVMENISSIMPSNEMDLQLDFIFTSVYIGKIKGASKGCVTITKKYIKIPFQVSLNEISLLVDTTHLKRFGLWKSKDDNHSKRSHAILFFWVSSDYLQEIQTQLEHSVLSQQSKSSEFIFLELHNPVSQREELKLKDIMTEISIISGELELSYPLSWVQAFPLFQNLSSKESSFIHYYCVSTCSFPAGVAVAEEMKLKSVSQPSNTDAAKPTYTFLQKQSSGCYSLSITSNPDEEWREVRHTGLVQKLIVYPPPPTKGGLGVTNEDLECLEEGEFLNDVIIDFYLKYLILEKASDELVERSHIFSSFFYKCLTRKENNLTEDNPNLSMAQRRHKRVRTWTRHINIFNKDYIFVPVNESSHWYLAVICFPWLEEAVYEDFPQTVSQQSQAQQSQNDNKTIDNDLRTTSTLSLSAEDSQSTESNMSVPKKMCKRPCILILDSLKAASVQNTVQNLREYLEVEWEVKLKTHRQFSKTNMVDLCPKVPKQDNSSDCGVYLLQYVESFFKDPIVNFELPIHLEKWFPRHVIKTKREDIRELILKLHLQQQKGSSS
The format is functional.

Assay [12] has as its target Large T antigen (Simian virus 40, UniProt P03070). In kind it is functional, Betapolyomavirus macacae.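 Note: Confirmatory-stage PubChem screen for compounds that inhibit SV40 T antigen.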
Assay [13] in a line: blockers of HIV-1 envelope-mediated cell-cell fusion – cherry-pick, dose response (AID 652057). The format is functional, cell-based.
A short description of assay [14]: viability loss in CEM21 cells – cell-based, CellTiter-Glo luminescence, cherry-picked, cytotoxicity control for viral fusion inhibitor project, dose response (AID 652042).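 Note: potency for signal decrease meaning cytotoxicity.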 The format is functional. For orientation: ATP-based viability assays read luminescence as a measure of living cells.
A short description of assay [15]: blockers of HIV-1 ZM109 envelope-driven cell-cell fusion – HeLa effector, CEM target cells, luciferase, cherry-pick, dose response (AID 652058).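 Note: luciferase signal from HIV-1 Env mediated cell-cell fusion of effector and target cells.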 The format is functional, cell-based.
Assay [16] in a line: HIV-1 AD8 envelope cell-cell fusion blockers – cherry-pick, dose response (AID 652062).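 Note: luciferase signal from cell-cell fusion driven by HIV-1 clade B AD8 Env; potency is for inhibitors of fusion seen as a drop in luminescence.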 The format is functional, cell-based.
Assay [17] in a line: off-target signal loss in HeLa-CEM21 co-culture – HeLa F-luc CTL cells, cherry-picked, counter-screen for HIV-1 Env fusion inhibitor project, dose response (AID 652040).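 Note: potency for signal decrease marking cytotoxic or nonspecific inhibition.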 In kind it is functional, cell-based.
Assay [18] is described as follows: microbe, parasite or virus in culture. The conditions noted are these: Mycobacterium tuberculosis. In kind it is functional.

Active and inactive are the calls of the source. Some results are limits rather than exact numbers.

Chain of Beta-galactosidase (Q8VNN2 whole entry): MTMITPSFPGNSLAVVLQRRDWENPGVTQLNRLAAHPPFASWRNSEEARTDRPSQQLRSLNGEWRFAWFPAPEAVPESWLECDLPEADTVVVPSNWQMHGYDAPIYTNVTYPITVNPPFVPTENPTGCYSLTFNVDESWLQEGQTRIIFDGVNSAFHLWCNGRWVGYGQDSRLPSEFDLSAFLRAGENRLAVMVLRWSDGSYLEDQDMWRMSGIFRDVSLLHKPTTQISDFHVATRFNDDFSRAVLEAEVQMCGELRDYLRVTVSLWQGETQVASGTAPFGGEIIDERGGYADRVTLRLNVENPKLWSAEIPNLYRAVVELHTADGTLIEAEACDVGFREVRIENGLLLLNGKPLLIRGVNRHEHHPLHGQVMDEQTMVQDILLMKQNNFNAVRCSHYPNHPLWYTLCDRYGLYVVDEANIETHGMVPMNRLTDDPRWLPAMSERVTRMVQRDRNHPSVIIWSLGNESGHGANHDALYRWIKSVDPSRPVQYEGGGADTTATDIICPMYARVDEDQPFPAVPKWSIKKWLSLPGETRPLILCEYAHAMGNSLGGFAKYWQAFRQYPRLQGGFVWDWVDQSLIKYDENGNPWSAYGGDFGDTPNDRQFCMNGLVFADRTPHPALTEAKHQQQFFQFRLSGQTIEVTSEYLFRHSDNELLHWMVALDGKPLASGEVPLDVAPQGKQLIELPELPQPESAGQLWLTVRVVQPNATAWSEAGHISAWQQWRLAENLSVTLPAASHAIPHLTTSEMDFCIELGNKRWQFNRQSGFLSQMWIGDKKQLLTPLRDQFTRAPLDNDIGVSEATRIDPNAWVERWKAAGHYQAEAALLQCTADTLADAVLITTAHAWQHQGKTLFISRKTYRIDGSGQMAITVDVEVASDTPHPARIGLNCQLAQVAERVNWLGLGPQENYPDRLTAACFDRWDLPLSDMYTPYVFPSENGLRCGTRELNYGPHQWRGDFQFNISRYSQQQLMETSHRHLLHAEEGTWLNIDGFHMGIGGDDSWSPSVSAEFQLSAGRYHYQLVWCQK
Chain of Large T antigen (P03070 whole entry, the tested form may be a part): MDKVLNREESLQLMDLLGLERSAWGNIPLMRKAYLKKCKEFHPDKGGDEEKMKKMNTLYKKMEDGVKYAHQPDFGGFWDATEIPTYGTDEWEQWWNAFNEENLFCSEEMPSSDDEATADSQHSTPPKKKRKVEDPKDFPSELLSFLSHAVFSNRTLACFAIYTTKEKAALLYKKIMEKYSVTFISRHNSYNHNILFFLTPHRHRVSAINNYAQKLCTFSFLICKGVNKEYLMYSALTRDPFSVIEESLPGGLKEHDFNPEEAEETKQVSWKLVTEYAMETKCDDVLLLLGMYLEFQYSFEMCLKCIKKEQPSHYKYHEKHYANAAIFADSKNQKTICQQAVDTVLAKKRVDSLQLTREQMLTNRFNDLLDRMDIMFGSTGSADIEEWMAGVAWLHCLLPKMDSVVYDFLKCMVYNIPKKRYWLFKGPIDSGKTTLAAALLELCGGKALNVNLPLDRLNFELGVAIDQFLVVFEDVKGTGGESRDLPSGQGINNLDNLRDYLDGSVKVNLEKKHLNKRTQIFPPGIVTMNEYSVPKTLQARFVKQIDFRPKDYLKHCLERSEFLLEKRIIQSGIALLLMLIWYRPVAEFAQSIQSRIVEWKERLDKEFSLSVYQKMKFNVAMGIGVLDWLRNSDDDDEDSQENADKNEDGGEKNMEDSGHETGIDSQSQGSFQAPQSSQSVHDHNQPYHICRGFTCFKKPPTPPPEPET

As usually defined, the GI50 is the concentration at which growth is held to half of that of the control. With `COc1cc2c(cc1OC)C(Cc1c3ccccc3cc3ccccc13)N(C)CC2` (configuration not stated), the GI50 in [1] was 15.5 µM (inactive); in assay [2], 15.8 µM (inactive); in assay [3] it was 18.7 µM (inactive).

One may read the AC50 as the concentration giving half of the maximal activity seen. With `C[C@@H]1CCCCO[C@@H](CN(C)CC2CCCCC2)[C@H](C)CN([C@@H](C)CO)C(=O)c2cc(NC(=O)Nc3cccc4ccccc34)ccc2O1`, the AC50 is 47.3 µM (active) in [4] and 5.03 µM (active) in assay [5].

For `C[C@H](CO)N1C[C@H](C)[C@H](CN(C)S(=O)(=O)c2cccc(F)c2)Oc2ncc(C#CC3CCCCC3)cc2C1=O`, the half-maximal activity concentration (AC50) in [4] was 32.3 µM (active); in [5], 6.43 µM (active).

In the case of `CNC[C@@H]1Oc2cc(C#Cc3cccc(OC)c3)ccc2S(=O)(=O)N([C@@H](C)CO)C[C@@H]1C`, the figures for the AC50 in assay [4] and in assay [5] were 14.9 µM (active) and 9.73 µM (active), respectively.

By IC50 is commonly meant the concentration that inhibits the measured activity by half. Consider `CCOc1ccc(NC(S)=Nc2ccc(C)c([N+](=O)[O-])c2)cc1`, for which the IC50 in [6] was 131 µM (inactive).

With `CCN(CC)c1ccc(NC(=O)COC(=O)c2cccs2)cc1`, the IC50 in [7] is 98.2 µM (active); in assay [8], > 100 µM (inactive); in assay [9], 15.7 µM (active); in [10] it was 16.2 µM (active); in [11], 11.7 µM (active); in [12] it was 15.2 µM (active).

With `Cc1ccccc1-c1nc(CN2CCC(C(=O)NCCC3=CCCCC3)CC2)c(C)o1`, the AC50 in [13] was 4.21 µM (active); in [14], 25.6 µM (active); in [15], 6.35 µM (active); in assay [16], 7.96 µM (active); in [17] it was 7.7 µM (active). In assay [18], the CC50 is > 40 µM (active).

Take `CCC1(O)CC(OC2CC(N(C)C)C(OC3CC4OC5CC(=O)C(C)OC5OC4C(C)O3)C(C)O2)c2c(cc3c(c2O)C(=O)c2c(O)ccc(O)c2C3=O)C1C(=O)OC` (configuration not stated): the GI50 in [1] was 0.00741 µM (active); in [2], 0.000703 µM (active); in assay [3] it was 0.000368 µM (active).

For the compound `COc1ccc2c3c([nH]c2c1)[C@@H](CO)N(C(=O)Nc1cccc(F)c1)CC31CCN(S(=O)(=O)c2ccccc2)CC1`, the figures for the AC50 in assay [13] and in assay [14] were 23.2 µM (active) and 21 µM (active), respectively.

In the case of `Cc1[nH]c2ccc(C(=O)N3CCN(c4ccc(F)cc4)CC3)cc2c1C`, in [6], the IC50 was > 80 µM (inactive).

Regarding `CN(C)C(CN)CC1=C(CC(CN)N(C)C)CCC1` (configuration not stated), the GI50 in [1], in [2] and in assay [3] was > 100 µM (inactive) throughout.

For the compound `Nc1ccc(/C=C/c2ccc3ncccc3c2)cc1`, the IC50 in [7] was 9.32 µM (active); in assay [8], > 100 µM (inactive); in assay [10], 22.8 µM (active); in assay [11], 10.4 µM (active).

With `CCOC(=O)/C(O)=C1\C(=O)N(C)C(=O)C1c1ccc(OC)c(OC)c1` (configuration not stated), the GI50 in assay [1] was > 100 µM (inactive); in assay [2], > 31.6 µM (inactive); in assay [3], > 100 µM (inactive).

With `CC(=O)Nc1ccc(C(=O)COC(=O)C2CCCCC2)c(F)c1`, the IC50 in [7] was 20.4 µM (active); in assay [8], 65.6 µM (active); in assay [10], 17.5 µM (active); in assay [11], 6.32 µM (active).

Regarding `CC1=C(C(=O)Nc2ccc(Cl)c(C(=O)OC(C)C)c2)SCCO1`, the GI50 in assay [1] was 58.6 µM (inactive); in [2], 29.2 µM (inactive); in assay [3] it was 23.2 µM (inactive).

`CN1CCN(C(=O)/C=C/c2ccc(Cl)c(Cl)c2)CC1`: in [6], the IC50 is > 80 µM (inactive).

Regarding `Cc1cc(C)n(-c2ccc(C(=O)N3CCN(S(=O)(=O)c4ccc(Br)cc4Cl)CC3)cc2)n1`, the IC50 in assay [6] is > 80 µM (inactive).
